This test concerns the target Aurora kinase-1 (TbAUK1) (Trypanosoma brucei, UniProt Q384J7). Nature of the test: in vitro kinase assay of immunoprecipitated kinase. It is filed as biochemical.

As to `CCS(=O)(=O)Nc1ccc2c(c1)/C(=C(/Nc1ccc(CN3CCCCC3)cc1)c1ccccc1)C(=O)N2` [Hesperadin], half-maximal inhibition (IC50) was put at 40 nM.

These data come from publication PMC2697958 (Molecular microbiology, 2009).
